From patent publication US8030016B2, “Method for screening for vitamin D receptor ligands” (Teijin Pharma Limited, priority 2006, dated 2011)

Columns and labels:
SaM-1 cells [1] = test: Gene expression during osteoblast differentiation of SaM-1 cells, real-time RT-PCR; assay type: cell-based, human; conditions: various concentrations, up to 28 days, relative to beta actin
Source text: The medium was replaced every 2 to 3 days. Cells were recovered at the fourth day, seventh day, fourteenth day, and twenty-eighth day until the final differentiation (calcification) on the twenty-eighth day. Total RNA was extracted using an RNeasy Mini Kit (QIAGEN, Product No. 74104) and cDNA synthesized using an Ommniscript RTKit (QIAGEN, Product No. 205110). The cDNA was mixed with SYBR Green PCR Master Mix (Applied Biosystems, Product No. 4367659) and primer oligos suitable for amplifying various types of genes. Variation in the gene expression of the alkaline phosphatase which is a marker for osteoblast differentiation, CDP and osteocalcin, and beta actin which is known as a universally expressed housekeeping gene was examined by real-time RT-PCR using a GeneAmp 5700 Sequence Detection System (Applied Biosystems) or ABI PRISM 7000 Sequence Detection System (Applied Biosystems). Oligos complementary to the various genes were designed by general methods and synthesized by Sigma Genosys. The results are shown by relative values with respect to the amount of expression of beta actin. […] The value for the relative amount of expression is calculated using the formula 2^−(ΔΔCT of target gene−ΔΔCT of beta actin).

HOS cells = test: Gene expression in HOS cells transfected with pSPORT6-CDP, real-time RT-PCR; assay type: cell-based, human; conditions: HOS cells with CDP introduced, various concentrations, three days, relative to GAPDH
Description: After three days, cells were recovered, and total RNA was extracted using an RNeasy Mini Kit (QIAGEN, Product No. 74104). Reverse transcription reactions were performed by oligo dT primers using SuperScriptlll RT (Invitrogen, 18080-044) and the amount of expression of various genes was determined using real-time RT-PCR (Applied Biosystems, GeneAmp7000). The amount of gene expression was corrected using GAPDH which is a housekeeping gene and shown as a relative figure of GAPDH and the amount of respective gene expression. The formula used is the same as that used in Example 5.

[2] = test system: human CYP24 gene promoter; test: Dual luciferase assay, human CYP24 gene promoter in HOS cells; assay type: cell-based; conditions: 10^−8 M, 24 hours
Description: (§1) In order to determine whether or not CDP expression increases VDR ligand-dependent transcription activity, a dual luciferase assay was performed using transient transfection in the same manner as Example 6. The reporter vector used in the dual luciferase assay was a pGL4 vector containing a sequence of human CYP24 gene promoter or a sequence of a human osteocalcin gene promoter upstream of the luciferase gene. The pGL4 vector was commercially obtained from Promega. Furthermore, a DNA sequence encoding a region of 4-427 amino acid residues for human VDR was introduced into a pTracerCMV2 vector (Invitrogen) in order to construct a human VDR expression plasmid. The expression vector for intracellular expression of the CDP protein was the pSPORT6-CDP vector used in Example 4. HOS cells used in the assay were cultured in DMEM medium containing 10% FBS and were passaged every two or three days. The culturing conditions were 37° C., 5% CO2. […] The medium was removed after 24 hours and after washing once in PBS(−), luciferase activity was determined by a Dual-Luciferase Assay kit (Promega) using a luminometer (Bethold Japan). The results were expressed as a “transcription activation” being the value represented by (firefly luciferase activity)/(renilla luciferase activity). […]

[3] = test system: human osteocalcin gene promoter; test: Dual luciferase assay, human osteocalcin gene promoter in HOS cells; assay type: cell-based; conditions: 10^−8 M, 24 hours, endogenous VDR
Description: as §1

HOS-TE85 cells = test: Differentiation of HOS-TE85 cells in culture; assay type: cell-based; conditions: culturing in the presence of the compound
HeLa cells = test: Differentiation of HeLa cells in culture; assay type: cell-based; conditions: culturing in the presence of the compound
MCF-7 cells = test: Differentiation of MCF-7 cells in culture; assay type: cell-based; conditions: culturing in the presence of the compound
SaM-1 cells [4] = test: Alkaline phosphatase staining of SaM-1 cells infected with Ad-CDP or Ad-mock; conditions: 10^−8−10^−7 M, seven days
Description: The cells were used to inoculate a 24 well multi-well plate and cultured. When the cells reached 80% confluence, the medium was exchanged for a proliferation medium containing the virus, cultured overnight in order to infect the cells with the virus. Then the medium was exchange for a proliferation medium not containing a virus. […] The medium was exchanged every two days and cultured for seven days. After seven days culturing, alkaline phosphatase staining was performed.

[5] = target: T1, CCAAT Displacement Protein (CDP), endogenous protein in nuclear protein extracts (human, UniProt P39880 1-1505, limits assumed); test: immunoprecipitation with anti-CDP antibody of the glutathione eluate of GST-VDR-bound HOS nuclear proteins (with 1,25(OH)2D3); western blot
T1 construct: Endogenous protein of nuclear extracts from HOS (human osteoblast cell strain), HeLa or Caco-2 cells; also called CUTL1; CUX
T1 sequence (P39880 whole entry): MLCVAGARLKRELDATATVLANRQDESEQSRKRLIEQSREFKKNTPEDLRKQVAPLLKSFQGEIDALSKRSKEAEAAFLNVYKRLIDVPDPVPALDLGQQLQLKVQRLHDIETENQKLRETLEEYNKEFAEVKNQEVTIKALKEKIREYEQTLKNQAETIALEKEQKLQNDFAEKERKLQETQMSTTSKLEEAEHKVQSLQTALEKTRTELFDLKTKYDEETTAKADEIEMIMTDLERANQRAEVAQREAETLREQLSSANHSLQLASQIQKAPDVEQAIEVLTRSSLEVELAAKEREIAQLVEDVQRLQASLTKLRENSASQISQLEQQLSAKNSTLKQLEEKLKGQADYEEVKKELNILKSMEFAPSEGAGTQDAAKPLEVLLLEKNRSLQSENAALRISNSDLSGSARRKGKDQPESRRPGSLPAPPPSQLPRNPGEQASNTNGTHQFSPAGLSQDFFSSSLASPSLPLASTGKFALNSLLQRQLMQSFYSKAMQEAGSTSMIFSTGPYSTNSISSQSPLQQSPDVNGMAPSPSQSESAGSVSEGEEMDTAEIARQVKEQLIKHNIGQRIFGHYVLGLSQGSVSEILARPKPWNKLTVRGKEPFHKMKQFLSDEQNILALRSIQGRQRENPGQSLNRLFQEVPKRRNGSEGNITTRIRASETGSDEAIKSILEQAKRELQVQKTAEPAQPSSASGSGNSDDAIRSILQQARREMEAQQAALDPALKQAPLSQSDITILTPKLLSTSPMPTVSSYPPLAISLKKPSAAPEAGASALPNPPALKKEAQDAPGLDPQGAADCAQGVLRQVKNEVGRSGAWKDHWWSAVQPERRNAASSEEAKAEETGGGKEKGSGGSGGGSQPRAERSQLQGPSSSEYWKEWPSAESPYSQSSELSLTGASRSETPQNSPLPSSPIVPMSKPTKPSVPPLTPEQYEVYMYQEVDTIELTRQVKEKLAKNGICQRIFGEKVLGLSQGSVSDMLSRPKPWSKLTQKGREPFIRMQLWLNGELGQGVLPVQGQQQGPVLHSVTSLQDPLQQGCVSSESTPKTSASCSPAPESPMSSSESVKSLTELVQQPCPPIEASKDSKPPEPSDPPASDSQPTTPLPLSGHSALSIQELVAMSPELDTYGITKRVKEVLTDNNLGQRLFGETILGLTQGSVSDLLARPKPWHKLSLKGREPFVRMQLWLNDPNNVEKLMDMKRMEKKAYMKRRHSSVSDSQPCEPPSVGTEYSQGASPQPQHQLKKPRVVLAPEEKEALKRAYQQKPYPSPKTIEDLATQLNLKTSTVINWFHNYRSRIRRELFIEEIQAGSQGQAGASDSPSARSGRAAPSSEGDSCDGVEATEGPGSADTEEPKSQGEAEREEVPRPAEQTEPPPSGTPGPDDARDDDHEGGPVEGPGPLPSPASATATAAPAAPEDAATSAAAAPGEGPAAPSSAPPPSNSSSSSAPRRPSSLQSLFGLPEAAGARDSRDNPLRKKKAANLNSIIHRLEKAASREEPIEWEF

Row | Molecule | gene expression of CDP (SaM-1 cells [1]) | gene expression of osteocalcin (SaM-1 cells [1]) | gene expression of CYP24 (HOS cells) | gene expression of alkaline phosphatase (ALP) (HOS cells) | gene expression of osteocalcin (HOS cells) | VDR-mediated transcription activation of a human CYP24 promoter [2] | VDR-mediated transcription activation of a human CYP24 promoter when CDP is expressed ([2]; pSPORT6-CDP co-transfected) | VDR-mediated transcription activation of a human osteocalcin promoter [3] | VDR-mediated transcription activation of a human osteocalcin promoter when CDP is expressed ([3]; pSPORT6-CDP co-transfected) | cell differentiation (HOS-TE85 cells) | cell differentiation (HeLa cells) | cell differentiation (MCF-7 cells) | number of alkaline phosphatase-positive cells (SaM-1 cells [4]; Ad-CDP group (CDP over-expressed)) | number of alkaline phosphatase-positive cells (SaM-1 cells [4]; Ad-mock group) | binding result [5]
1 | C=C1/C(=C\C=C2/CCC[C@]3(C)[C@@H]([C@H](C)CCCC(C)(C)O)CC[C@@H]23)C[C@@H](O)C[C@@H]1O [1,25 (OH)2D3, 1α,25-dihydroxyvitamin D3] | increase | increase | increased | increased | increased | increases | further increased when CDP is expressed | increases | further increased when CDP is expressed | differentiate | this type of action was not seen | this type of action was not seen | conspicuously higher increase in the number of alkaline phosphatase-positive cells | increase in the number of alkaline phosphatase-positive cells | 
2 | TRAP100, endogenous protein in nuclear protein extracts (other, human, UniProt O75448 1-989, looked up) MKVVNLKQAILQAWKERWSDYQWAINMKKFFPKGATWDILNLADALLEQAMIGPSPNPLILSYLKYAISSQMVSYSSVLTAISKFDDFSRDLCVQALLDIMDMFCDRLSCHGKAEECIGLCRALLSALHWLLRCTAASAERLREGLEAGTPAAGEKQLAMCLQRLEKTLSSTKNRALLHIAKLEEASSWTAIEHSLLKLGEILANLSNPQLRSQAEQCGTLIRSIPTMLSVHAEQMHKTGFPTVHAVILLEGTMNLTGETQSLVEQLTMVKRMQHIPTPLFVLEIWKACFVGLIESPEGTEELKWTAFTFLKIPQVLVKLKKYSHGDKDFTEDVNCAFEFLLKLTPLLDKADQRCNCDCTNFLLQECGKQGLLSEASVNNLMAKRKADREHAPQQKSGENANIQPNIQLILRAEPTVTNILKTMDADHSKSPEGLLGVLGHMLSGKSLDLLLAAAAATGKLKSFARKFINLNEFTTYGSEESTKPASVRALLFDISFLMLCHVAQTYGSEVILSESRTGAEVPFFETWMQTCMPEEGKILNPDHPCFRPDSTKVESLVALLNNSSEMKLVQMKWHEACLSISAAILEILNAWENGVLAFESIQKITDNIKGKVCSLAVCAVAWLVAHVRMLGLDEREKSLQMIRQLAGPLFSENTLQFYNERVVIMNSILERMCADVLQQTATQIKFPSTGVDTMPYWNLLPPKRPIKEVLTDIFAKVLEKGWVDSRSIHIFDTLLHMGGVYWFCNNLIKELLKETRKEHTLRAVELLYSIFCLDMQQVTLVLLGHILPGLLTDSSKWHSLMDPPGTALAKLAVWCALSSYSSHKGQASTRQKKRHREDIEDYISLFPLDDVQPSKLMRLLSSNEDDANILSSPTDRSMSSSLSASQLHTVNMRDPLNRVLANLFLLISSILGSRTAGPHTQFVQWFMEECVDCLEQGGRGSVLQFMPFTTVSELVKVSAMSSPKVVLAITDLSLPLGRQVAAKAIAAL |  |  |  |  |  |  |  |  |  |  |  |  |  |  | no binding
